From EP0603240B1, “SAFENING HERBICIDAL PYRAZOLYLSULFONYLUREAS” (priority 1991, dated 1993)

What was measured:
Format in all cases: in vivo
corn [1] = experiment: Example 19, Procedure II: Herbicide No. 1 + ERADICANE EXTRA with added antidotes
Method: (§1) Containers were filled and compacted with a fumigated silt loam top soil to a depth of about 1.3 cm from the top of the container. A first container was designated as an untreated control, a second container was designated as a herbicide control, and a third container was designated as a herbicide + antidote test container. Each of the containers was seeded with a crop species. A measured amount of herbicide dispersed or dissolved in acetone was applied to a measured quantity of soil. To this same quantity of soil treated with herbicide, there was added a measured amount of antidote dispersed or dissolved in acetone. The quantity of soil treated with the herbicide and antidote was thoroughly mixed to incorporate the herbicide and antidote in the soil uniformly. The seed bed in the third container of soil was covered with the soil treated with the herbicide and antidote and the container was leveled. For each test series, the seed beds of the first and second containers were likewise covered by soil layers. the cover layer of the first container was not treated with herbicide or antidote.
(§2) The containers were then placed on a bench in a greenhouse and sub-irrigated as required for the duration of the test. […] Plant response is measured in terms of percent injury. Antidote efficacy is indicated as the difference in plant injury by the herbicide(s) without the antidote and with the antidote.
(§3) This procedure is the same as Procedure I, but modified in the manner that after incorporation of the chemicals (herbicide and antidote) the containers with the covered seedbed were treated with an initial overhead irrigation equivalent to 0.6 cm rainfall, then subsequently sub-irrigated as required on greenhouse benches.
(§4) In the test reported in this example, the herbicidal composition was similar to that used in Example 16 in that Herbicide No. 1 was combined with EPTC (Herbicide No. 4) as a co-herbicide and the antidotes included Nos. 1, 2, 7, 13 and 15. However, in this test the EPTC was introduced as a formulation of ERADICANE (EPTC + the antidote R-25788, i.e., Antidote No. 1) at an application rate of 8.96 kg/ha. Thus, in this test two antidotes were present, viz. R-25788 and one of the auxilliary antidotes, No. 2, 13 and 15.
The test reported in this example was performed in the same manner and with the same antidotes used in Example 18, the only difference being the substitution of the commercial herbicidal product ERADICANE® EXTRA for ERADICANE®. ERADICANE EXTRA is a formulation containing both an antidote, i.e., R-29148 (Antidote No. 5 herein), and an extender, dietholate.

[2] = system: velvetleaf (Abutilon theophrasti); experiment: Example 10, Procedure II: Herbicide No. 1 + propachlor (No. 5) with antidotes
Method: as §1, §2, §3
(§5) In the series of greenhouse tests described below, for routine screening purposes the herbicide/antidote compositions were tested in crop/weed combinations involving corn as the crop and either or both of the weeds barnyardgrass (Echinochloa crusgalli), a monocotyledonous weed, and velvetleaf (Abutilon theophrasti), a dicotyledonous weed. In the tables below, these weeds are indicated by the symbols "BYG" and "VL", respectively.
(§6) In this test, the safening effect of various antidotes on the herbicidal combination of Herbicide No. 1 and another α-chloroacetanilide co-herbicide, propachlor, (Herbicide No. 5) was investigated. Propachlor is the active ingredient in the commercial herbicide RAMROD®. Procedure II was also used in this test as in the preceding example.

[3] = system: barnyardgrass (Echinochloa crusgalli); experiment: as above
Method: as §1, §2, §3, §5, §6

corn [4] = experiment: Example 6, Procedure II: Herbicide No. 1 + alachlor (No. 7) with antidotes
Method: as §1, §2, §3
This example was designed to investigate the antidotal efficacy of a plurality of antidotal compounds against a composition comprising Herbicide No. 1 in combination with Herbicide No. 7 (alachlor). The antidotal compounds used herein were Nos. 1, 2, 7, 13 and 15.
(§7) In this example, Procedure II described above was followed. The data from the tests in this example is shown in Table 6 and represents averages of duplicate replications.

[5] = system: velvetleaf (Abutilon theophrasti); experiment: Example 22: retest of Example 21 at reduced greenhouse temperatures; settings: Table 22
Method: as §1, §2, §3, §5
(§8) In this example, tests were conducted as in the preceding Examples 18-20, except here the co-herbicidal component was SUTAN® PLUS, a commercial product comprising as the active herbicidal ingredient the compound butylate (Herbicide No. 10) and an antidote […] (Antidote No. 1). Again, the antidotal compounds herein were Nos. 1, 2, 7, 13 and 15. Procedure II was used.
(§9) The experiments in this example were designed as a retest of those described in Example 21 in view of the uncharacteristically poor corn safety and weed control, believed to have resulted from unseasonably high temperatures in the greenhouse. Accordingly, temperatures were reduced for these tests.

[6] = system: barnyardgrass (Echinochloa crusgalli); experiment: as above; settings: Table 22
Method: as §1, §2, §3, §5, §8, §9

corn [7] = experiment: as above; settings: Table 22
Method: as §1, §2, §3, §8, §9

[8] = system: barnyardgrass (Echinochloa crusgalli); experiment: Example 7, Procedure II: Herbicide No. 1 + metolachlor (No. 12) with antidotes
Method: as §1, §2, §3, §5, §7
The tests in this example followed the same procedure and antidotes used in Example 6. However, Herbicide No. 12 (metolachlor) was used as the co-herbicide with Herbicide No. 1.

[9] = system: velvetleaf (Abutilon theophrasti); experiment: Example 18, Procedure II: Herbicide No. 1 + ERADICANE (EPTC + R-25788) with auxiliary antidotes
Method: as §1, §2, §3, §5, §4
(§10) Test procedures were those of Procedure II above.

[10] = system: barnyardgrass (Echinochloa crusgalli); experiment: as above
Method: as §1, §2, §3, §5, §4, §10

[11] = Herbicide No.1 0.14 kg/ha alone, no antidote
[12] = Herbicide No.1 0.56 kg/ha alone, no antidote
[13] = Herbicide No.1 0.56 kg/ha alone
[14] = Herbicide No.1 0.56 Kg/ha + SUTAN + 8.96 Kg/ha, no added antidote
[15] = Herbicide No.1 0.56 Kg/ha alone
[16] = Herbicide No.1 1.12 Kg/ha + SUTAN + 8.96 Kg/ha, no added antidote
[17] = Herbicide No.1 1.12 Kg/ha alone
[18] = Herbicide No.1 1.12 kg/ha alone
[19] = Herbicide No.1 0.56 kg/ha + ERADICANE 8.96 kg/ha, no added antidote
[20] = Herbicide No.1 1.12 kg/ha + ERADICANE 8.96 kg/ha, no added antidote
[21] = Herbicide No.1 0.14 kg/ha + Herbicide No.5 4.48 kg/ha, antidote rate 2.24 kg/ha
[22] = Herbicide No.1 0.14 kg/ha + Herbicide No.5 4.48 kg/ha, antidote rate 8.96 kg/ha
[23] = Herbicide No.1 0.56 kg/ha + Herbicide No.5 4.48 kg/ha, antidote rate 2.24 kg/ha
[24] = Herbicide No.1 0.56 kg/ha + Herbicide No.5 4.48 kg/ha, antidote rate 8.96 kg/ha
[25] = Herbicide No.1 0.56 Kg/ha + SUTAN + 8.96 Kg/ha + antidote 2.24 Kg/ha
[26] = Herbicide No.1 0.56 Kg/ha + SUTAN + 8.96 Kg/ha + antidote 8.96 Kg/ha
[27] = Herbicide No.1 1.12 Kg/ha + SUTAN + 8.96 Kg/ha + antidote 2.24 Kg/ha
[28] = Herbicide No.1 1.12 Kg/ha + SUTAN + 8.96 Kg/ha + antidote 8.96 Kg/ha
[29] = Herbicide No.1 0.56 kg/ha + ERADICANE 8.96 kg/ha, antidote 2.24 kg/ha
[30] = Herbicide No.1 0.56 kg/ha + ERADICANE 8.96 kg/ha, antidote 8.96 kg/ha
[31] = Herbicide No.1 1.12 kg/ha + ERADICANE 8.96 kg/ha, antidote 2.24 kg/ha
[32] = Herbicide No.1 1.12 kg/ha + ERADICANE 8.96 kg/ha, antidote 8.96 kg/ha

CC1(C)OC(c2ccco2)CN1C(=O)C(Cl)Cl (centres unmarked) [Antidote No. 15, Oxazolidine, 3-(dichloroacetyl)-5-(2-furanyl)-2,2-dimethyl]
corn injury (corn [1]; Herbicide No. 1 + ERADICANE EXTRA + added antidote, highest rates of antidotes and herbicides): 25%

COC(=O)c1c(Cl)nn(C)c1S(=O)(=O)NC(=O)Nc1nc(OC)cc(OC)n1 [Herbicide No. 1]
% Injury VL [2, 11]: 70% | % Injury VL [2, 12]: 75% | % Injury BYG [3, 11]: 75% | % Injury BYG [3, 12]: 80% | % Injury Corn (corn [4]; Herbicide No.1 0.14 + No.7 4.48 kg/ha, no antidote): 20% | % Injury Corn (corn [4]; Herbicide No.1 0.14 kg/ha alone): 5% | % Injury Corn (corn [4]; Herbicide No.1 0.56 + No.7 (alachlor) 4.48 kg/ha, no antidote, average of duplicates): 30% | % Injury Corn (corn [4]; [13]): 25% | % Injury VL [5, 14]: 80% | % Injury VL [5, 15]: 65% | % Injury VL [5, 16]: 85% | % Injury VL [5, 17]: 80% | % Injury BYG [6, 14]: 93% | % Injury BYG [6, 15]: 55% | % Injury BYG [6, 16]: 93% | % Injury BYG [6, 17]: 70% | % Injury Corn (corn [7]; [14]): 55% | % Injury Corn (corn [7]; [15]): 60% | % Injury Corn (corn [7]; [16]): 60% | % Injury Corn (corn [7]; [17]): 65% | % Injury BYG ([8]; Herbicide No.1 0.14 + No.12 3.36 kg/ha, no antidote): 100% | % Injury BYG ([8]; Herbicide No.1 0.14 + No.12 3.36 kg/ha, no antidote (second such line, r25)): 35% | % Injury BYG ([8]; Herbicide No.1 0.56 + No.12 3.36 kg/ha, no antidote (second such line, r24)): 75% | % Injury BYG ([8]; Herbicide No.1 0.56 + No.12 (metolachlor) 3.36 kg/ha, no antidote): 100%

COC(=O)c1c(Cl)nn(C)c1S(=O)(=O)NC(=O)Nc1nc(OC)cc(OC)n1 [No.1]
% Injury Corn (corn [1]; Herbicide No.1 0.56 kg/ha + ERADICANE EXTRA 8.96 kg/ha, no added antidote): 30% | % Injury Corn (corn [1]; [13]): 20% | % Injury Corn (corn [1]; Herbicide No.1 1.12 kg/ha + ERADICANE EXTRA 8.96 kg/ha, no added antidote): 20% | % Injury Corn (corn [1]; [18]): 25% | % Injury VL [9, 19]: 80% | % Injury VL [9, 13]: 45% | % Injury VL [9, 20]: 75% | % Injury VL [9, 18]: 55% | % Injury BYG [10, 19]: 90% | % Injury BYG [10, 13]: 30% | % Injury BYG [10, 20]: 85% | % Injury BYG [10, 18]: 55%

C=CCN(CC=C)C(=O)C(Cl)Cl [compound 1]
% Injury Corn (corn [1]; Herbicide No.1 0.56 kg/ha + ERADICANE EXTRA 8.96 kg/ha, antidote 2.24 kg/ha): 35% | % Injury Corn (corn [1]; Herbicide No.1 0.56 kg/ha + ERADICANE EXTRA 8.96 kg/ha, antidote 8.96 kg/ha): 15% | % Injury Corn (corn [1]; Herbicide No.1 1.12 kg/ha + ERADICANE EXTRA 8.96 kg/ha, antidote 2.24 kg/ha): 35% | % Injury Corn (corn [1]; Herbicide No.1 1.12 kg/ha + ERADICANE EXTRA 8.96 kg/ha, antidote 8.96 kg/ha): 25% | % Injury VL [2, 21]: 75% | % Injury VL [2, 22]: 70% | % Injury VL [2, 23]: 70% | % Injury VL [2, 24]: 80% | % Injury BYG [3, 21]: 99% | % Injury BYG [3, 22]: 99% | % Injury BYG [3, 23]: 98% | % Injury BYG [3, 24]: 99% | % Injury Corn (corn [4]; Herbicide No.1 0.14 + No.7 4.48 kg/ha + antidote 2.24 kg/ha): 10% | % Injury Corn (corn [4]; Herbicide No.1 0.14 + No.7 4.48 kg/ha + antidote 8.96 kg/ha): 0% | % Injury Corn (corn [4]; Herbicide No.1 0.56 + No.7 4.48 kg/ha + antidote 2.24 kg/ha): 15% | % Injury Corn (corn [4]; Herbicide No.1 0.56 + No.7 4.48 kg/ha + antidote 8.96 kg/ha): 5% | % Injury VL [5, 25]: 80% | % Injury VL [5, 26]: 80% | % Injury VL [5, 27]: 80% | % Injury VL [5, 28]: 80% | % Injury BYG [6, 25]: 93% | % Injury BYG [6, 26]: 90% | % Injury BYG [6, 27]: 85% | % Injury BYG [6, 28]: 90% | % Injury Corn (corn [7]; [25]): 45% | % Injury Corn (corn [7]; [26]): 60% | % Injury Corn (corn [7]; [27]): 50% | % Injury Corn (corn [7]; [28]): 55% | % Injury BYG ([8]; Herbicide No.1 0.14 + No.12 3.36 kg/ha + antidote 2.24 kg/ha): 100% | % Injury BYG ([8]; Herbicide No.1 0.14 + No.12 3.36 kg/ha + antidote 8.96 kg/ha): 100% | % Injury BYG ([8]; Herbicide No.1 0.56 + No.12 3.36 kg/ha + antidote 2.24 kg/ha): 100% | % Injury BYG ([8]; Herbicide No.1 0.56 + No.12 3.36 kg/ha + antidote 8.96 kg/ha): 100% | % Injury VL [9, 29]: 85% | % Injury VL [9, 30]: 85% | % Injury VL [9, 31]: 75% | % Injury VL [9, 32]: 75% | % Injury BYG [10, 29]: 90% | % Injury BYG [10, 30]: 90% | % Injury BYG [10, 31]: 90% | % Injury BYG [10, 32]: 85%
